US11477982B2, “2-amino-5-oxyalkyl-pyrimidine derivatives and their use for controlling undesired plant growth” (Bayer CropScience Aktiengesellschaft, priority 2017, dated 2022)

Assays:
Assay type in all cases: in vivo
[1] = test system: ABUTH: Abutilon theophrasti; assay: Pre-emergence herbicidal effect; settings: dosage 320 g/ha
Excerpt: (§1) 1. Pre-Emergence Herbicidal Effect and Crop Plant Compatibility
(§2) Seeds of monocotyledonous and dicotyledonous weed plants and crop plants are placed in plastic or wood fiber pots and covered with soil. The compounds of the invention, formulated in the form of wettable powders (WP) or as emulsion concentrates (EC), are then applied onto the surface of the covering soil as aqueous suspension or emulsion with addition of 0.5% additive at a water application rate of 600 l/ha (converted).
(§3) After the treatment, the pots are placed in a greenhouse and kept under good growth conditions for the trial plants. After about 3 weeks, the effect of the preparations is scored visually in comparison with untreated controls as percentages. For example, 100% activity=the plants have died, 0% activity=like control plants.

[2] = test system: ALOMY: Alopecurus myosuroides; assay: Pre-emergence herbicidal effect; settings: pre-emergence; dosage 320 g/ha
Excerpt: as §1, §2, §3

[3] = test system: AMARE: Amaranthus retroflexus; assay: Pre-emergence herbicidal effect; settings: pre-emergence; dosage 320 g/ha
Excerpt: as §1, §2, §3

AVEFA: Avena fatua = assay: Pre-emergence herbicidal effect; settings: dosage 320 g/ha
Excerpt: as §1, §2, §3

[4] = test system: ECHCG: Echinochloa crus-galli; assay: Pre-emergence herbicidal effect; settings: pre-emergence; dosage 320 g/ha
Excerpt: as §1, §2, §3

HORMU: Hordeum murinum = assay: Pre-emergence herbicidal effect; settings: pre-emergence; dosage 320 g/ha
Excerpt: as §1, §2, §3

LOLRI: Lolium rigidum = assay: Pre-emergence herbicidal effect; settings: dosage 320 g/ha
Excerpt: as §1, §2, §3

[5] = test system: MATIN: Matricaria inodora; assay: Pre-emergence herbicidal effect; settings: pre-emergence; dosage 320 g/ha
Excerpt: as §1, §2, §3

PHBPU: Ipomoea purpurea = assay: Pre-emergence herbicidal effect; settings: dosage 320 g/ha
Excerpt: as §1, §2, §3

[6] = test system: POLCO: Polygonum convolvulus; assay: Pre-emergence herbicidal effect; settings: dosage 320 g/ha
Excerpt: as §1, §2, §3

SETVI: Setaria viridis [7] = assay: Pre-emergence herbicidal effect; settings: pre-emergence; dosage 320 g/ha
Excerpt: as §1, §2, §3

STEME: Stellaria media [8] = assay: Pre-emergence herbicidal effect; settings: pre-emergence; dosage 320 g/ha
Excerpt: as §1, §2, §3

VERPE: Veronica persica [9] = assay: Pre-emergence herbicidal effect; settings: dosage 320 g/ha
Excerpt: as §1, §2, §3

VIOTR: Viola tricolor [10] = assay: Pre-emergence herbicidal effect; settings: dosage 320 g/ha
Excerpt: as §1, §2, §3

[11] = test system: ABUTH: Abutilon theophrasti; assay: Post-emergence herbicidal effect; settings: dosage 320 g/ha
Procedure: (§4) 2. Post-Emergence Herbicidal Effect and Crop Plant Compatibility
(§5) Seeds of monocotyledonous and dicotyledonous weeds and crop plants are placed in sandy loam in plastic or wood-fiber pots, covered with soil and cultivated in a greenhouse under controlled growth conditions, 2 to 3 weeks after sowing, the test plants are treated at the one-leaf stage. The compounds of the invention, formulated in the form of wettable powders (WP) or as emulsion concentrates (EC), are then sprayed onto the green parts of the plants as aqueous suspension or emulsion with addition of 0.5% additive at a water application rate of 600 l/ha (converted). After the test plants had been kept in the greenhouse under optimum growth conditions for about 3 weeks, the activity of the preparations is rated visually in comparison to untreated controls. For example, 100% activity=the plants have died, 0% activity=like control plants.

[12] = test system: AMARE: Amaranthus retroflexus; assay: Post-emergence herbicidal effect; settings: dosage 320 g/ha
Procedure: as §4, §5

[13] = test system: ECHCG: Echinochloa crus-galli; assay: Post-emergence herbicidal effect; settings: dosage 320 g/ha
Procedure: as §4, §5

STEME: Stellaria media [14] = assay: Post-emergence herbicidal effect; settings: dosage 320 g/ha
Procedure: as §4, §5

SETVI: Setaria viridis [15] = assay: Post-emergence herbicidal effect; settings: dosage 320 g/ha
Procedure: as §4, §5

VERPE: Veronica persica [16] = assay: Post-emergence herbicidal effect; settings: dosage 320 g/ha
Procedure: as §4, §5

VIOTR: Viola tricolor [17] = assay: Post-emergence herbicidal effect; settings: dosage 320 g/ha
Procedure: as §4, §5

Row | SMILES | Herbicidal action against ABUTH [1] | Herbicidal action against ALOMY [2] | Herbicidal action against AMARE [3] | Herbicidal action against AVEFA (AVEFA: Avena fatua) | Herbicidal action against ECHCG [4] | Herbicidal action against HORMU (HORMU: Hordeum murinum) | Herbicidal action against LOLRI (LOLRI: Lolium rigidum) | Herbicidal action against MATIN [5] | Herbicidal action against PHBPU (PHBPU: Ipomoea purpurea) | Herbicidal action against POLCO [6] | Herbicidal action against SETVI (SETVI: Setaria viridis [7]) | Herbicidal action against STEME (STEME: Stellaria media [8]) | Herbicidal action against VERPE (VERPE: Veronica persica [9]) | Herbicidal action against VIOTR (VIOTR: Viola tricolor [10]) | Herbicidal action against ABUTH [11] | Herbicidal action against AMARE [12] | Herbicidal action against ECHCG [13] | Herbicidal action against STEME (STEME: Stellaria media [14]) | Herbicidal action against SETVI (SETVI: Setaria viridis [15]) | Herbicidal action against VERPE (VERPE: Veronica persica [16]) | further results
1 | Cc1ccc2c(c1)[C@H](Nc1ncc(C(C)(O)C3CC3)cn1)[C@@H](C)C2 (stereo partly shown) [Example 1.20] | 100% | 100% | 100% | 100% | 100% | 100% | 100% | 100% | 100% | 100% | 100% | 100% | 100% | 100% | 90% | 90% | 100% | 100% |  |  | 
2 | CCc1ccc2c(c1)[C@H](Nc1ncc(C(C)(C)O)c(C)n1)CC2 [Example 1.57] | 100% | 100% | 100% | 100% | 100% | 100% | 100% | 100% | 100% | 100% | 100% | 100% | 100% | 100% | 90% | 100% | 100% | 90% | 90% | 90% | Herbicidal action against VIOTR (VIOTR: Viola tricolor [17]): 90%
3 | Cc1ccc2c(c1)[C@H](Nc1ncc(C(C)(C)O)c(C(C)F)n1)[C@@H](C)C2 (stereo partly shown) [Example 1.23] | 100% | 100% | 100% | 100% | 100% | 80% | 100% | 100% | 100% | 100% | 100% | 100% | 100% | 100% |  |  |  |  |  |  | 
4 | Cc1ccc2c(c1)[C@H](Nc1ncc(C(C)(C)O)cn1)CCO2 [Example 1.38] |  |  | 100% |  |  |  |  | 100% |  | 100% |  |  | 100% | 100% | 90% | 100% | 100% | 100% | 90% | 90% | Herbicidal action against VIOTR (VIOTR: Viola tricolor [17]): 90%
5 | CC(C)(O)c1cnc(N[C@@H]2CCc3ccccc32)nc1 [Example 1.30] |  |  | 100% |  |  |  |  | 100% |  | 100% |  |  | 100% | 100% | 90% | 100% | 100% | 100% | 90% | 80% | Herbicidal action against VIOTR (VIOTR: Viola tricolor [17]): 90%
6 | Cc1ccc2c(c1)[C@H](Nc1ncc(C(C)O)c(C)n1)CC2 (stereo partly shown) [Example 1.13] | 100% | 100% | 100% | 100% | 100% | 100% | 100% | 100% | 100% | 100% | 100% | 100% | 100% | 100% | 80% | 90% | 100% | 90% |  |  | 
7 | CCC(O)(c1cnc(N[C@H]2c3cc(C)ccc3C[C@@H]2C)nc1)C(F)(F)F (stereo partly shown) [Example 1.58] |  |  | 100% |  |  |  |  | 100% |  | 100% |  |  | 100% | 100% | 90% | 90% | 100% | 90% | 90% | 90% | Herbicidal action against VIOTR (VIOTR: Viola tricolor [17]): 90%
8 | Cc1ccc2c(c1)[C@H](Nc1ncc(C(C)(C)O)c(C)n1)CCO2 [Example 1.53] | 100% | 100% | 100% | 100% | 100% | 100% | 90% | 100% | 100% | 100% | 100% | 100% | 100% | 100% | 90% | 90% | 100% | 90% |  |  | 
9 | Cc1nc(NC2c3ccccc3CC2C)ncc1C(C)(C)O (mixture of isomers) [Example 1.51] | 100% | 100% | 100% | 80% | 100% | 90% | 100% | 100% | 100% | 100% | 100% | 100% | 100% | 100% |  |  |  |  |  |  | 
10 | Cc1ccc2c(c1)[C@H](Nc1ncc(C(C)(C)O)c(C(F)F)n1)[C@@H](C)C2 [Example 1.17] | 100% | 100% | 100% | 100% | 100% | 100% | 100% | 100% | 80% | 100% | 100% | 100% | 100% | 100% | 90% | 80% | 80% | 100% |  |  | 
11 | Cc1ccc2c(c1)[C@H](Nc1ncc(C(C)(O)C3(C)CC3)cn1)[C@@H](C)C2 (stereo partly shown) [Example 1.61] | 100% | 100% | 100% | 80% | 100% | 100% | 100% | 100% | 90% | 100% | 100% | 100% | 100% | 100% | 90% | 90% | 100% | 90% |  |  | 
